“And” between values parts separate entries of the source, which are not always exact repeats. Equal entries are not always repeated. Toxic doses and inconclusive results are not listed. The calls were made as follows: active = survival T/C of 150% or more; inactive = T/C below 125% in these data.
Tested on: P388 leukemia ip, CD2F1 mice, survival T/C
Test: NCI In Vivo Anticancer Drug Screen. Data for tumor model P388 Leukemia (intraperitoneal) in CD2F1 (CDF1) mice
Details: endpoint: median survival time, higher = longer survival
Summary of the method: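 Mice carrying the transplanted tumor received test compound or vehicle. Survival was recorded in each group, and the value is the treated-group measurement divided by that of the vehicle-treated control group.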

[1] = dose: 50.0 mg/kg/injection, schedule: Q01DX009 (ip), vehicle: saline with Tween-80
[2] = dose: 100.0 mg/kg/injection, schedule: Q01DX009 (ip), vehicle: saline with Tween-80

Measured: T/C

N=c1nc(N)c2ncc(/C=C/c3ccccc3)n(O)c-2n1
inactive: dose: 15.0 mg/kg/injection, schedule: Q01DX009 (ip), vehicle: saline 97 % of control | dose: 30.0 mg/kg/injection, schedule: Q01DX009 (ip), vehicle: saline 101 % of control | dose: 60.0 mg/kg/injection, schedule: Q01DX009 (ip), vehicle: saline 101 % of control

COc1ccc(C(=S)NC(O)C(=O)c2ccc(Cl)cc2)cc1OC (stereo unspecified)
inactive: [1] 103 % of control | [2] 103 % of control

COC(=O)C#CC(N)=O
inactive: dose: 1.25 mg/kg/injection, schedule: Q01DX009 (ip), vehicle: saline sonified 113 % of control | dose: 1.65 mg/kg/injection, schedule: Q01DX009 (ip), vehicle: saline with Tween-80 118 % of control | dose: 2.5 mg/kg/injection, schedule: Q01DX009 (ip), vehicle: saline with Tween-80 118 % of control | dose: 3.75 mg/kg/injection, schedule: Q01DX009 (ip), vehicle: saline with Tween-80 118 % of control | dose: 5.0 mg/kg/injection, schedule: Q01DX009 (ip), vehicle: saline sonified 122 % of control

COCCn1cc(F)c(=O)[nH]c1=O
inactive: dose: 30.0 mg/kg/injection, schedule: Q04DX002 (ip), vehicle: saline 110 % of control | dose: 60.0 mg/kg/injection, schedule: Q04DX002 (ip), vehicle: saline 104 % of control | dose: 100.0 mg/kg/injection, schedule: Q04DX002 (ip), vehicle: saline 115 % of control and 121 % of control | dose: 120.0 mg/kg/injection, schedule: Q04DX002 (ip), vehicle: saline 119 % of control | dose: 200.0 mg/kg/injection, schedule: Q04DX002 (ip), vehicle: saline 121 % of control | dose: 240.0 mg/kg/injection, schedule: Q04DX002 (ip), vehicle: saline 121 % of control | dose: 400.0 mg/kg/injection, schedule: Q04DX002 (ip), vehicle: saline 118 % of control and 121 % of control

[N-]=[N+]=NC(=O)c1ccccn1
inactive: dose: 25.0 mg/kg/injection, schedule: Q01DX009 (ip), vehicle: saline with Tween-80 101 % of control | [1] 113 % of control | [2] 120 % of control

NC(CSP(=O)(O)O)=NCC12CC3CC(CC(C3)C1)C2
inactive: dose: 3.12 mg/kg/injection, schedule: Q01DX009 (ip), vehicle: saline with Tween-80 100 % of control | dose: 6.25 mg/kg/injection, schedule: Q01DX009 (ip), vehicle: saline with Tween-80 104 % of control | dose: 12.5 mg/kg/injection, schedule: Q01DX009 (ip), vehicle: saline with Tween-80 110 % of control

CC1CC(C)(C)CC2(C1)OCC(CCl)O2 (stereo unspecified)
inactive: dose: 25.0 mg/kg/injection, schedule: Q01DX001 (ip), vehicle: saline with Tween-80 109 % of control | dose: 50.0 mg/kg/injection, schedule: Q01DX001 (ip), vehicle: saline with Tween-80 104 % of control | dose: 100.0 mg/kg/injection, schedule: Q01DX001 (ip), vehicle: saline with Tween-80 109 % of control

C/C=C/C=C\C(=O)O
inactive: dose: 6.25 mg/kg/injection, schedule: Q01DX009 (ip), vehicle: saline 102 % of control | dose: 12.5 mg/kg/injection, schedule: Q01DX009 (ip), vehicle: saline 93 % of control | dose: 25.0 mg/kg/injection, schedule: Q01DX009 (ip), vehicle: saline 93 % of control | dose: 200.0 mg/kg/injection, schedule: Q01DX009 (ip), vehicle: saline with Tween-80 104 % of control

O=C1c2ccccc2C(=O)c2c1cc1c(c2O)OCO1
inactive: dose: 60.0 mg/kg/injection, schedule: Q01DX005 (ip), vehicle: saline with Tween-80 86 % of control | dose: 120.0 mg/kg/injection, schedule: Q01DX005 (ip), vehicle: saline with Tween-80 89 % of control | dose: 240.0 mg/kg/injection, schedule: Q01DX005 (ip), vehicle: saline with Tween-80 91 % of control

CC1OC(OC2C(OC3C(OC4CCC5(C)C(CCC6(C)C5CC=C5C7CC(C)(C)CCC7(C(=O)O)CCC56C)C4(C)C)OCC(O)C3O)OC(CO)C(O)C2O)C(O)C(O)C1O (stereo unspecified)
inactive: dose: 3.75 mg/kg/injection, schedule: Q01DX005 (ip), vehicle: distilled water + Tween-80 98 % of control | dose: 7.5 mg/kg/injection, schedule: Q01DX005 (ip), vehicle: distilled water + Tween-80 100 % of control

CCc1c(C#N)c(N)c2c(N)c(C(=O)c3ccccc3)sc2c1C
inactive: dose: 50.0 mg/kg/injection, schedule: Q01DX005 (ip), vehicle: Klucel (hydroxypropylcellulose) (HPC) 89 % of control | dose: 100.0 mg/kg/injection, schedule: Q01DX005 (ip), vehicle: Klucel (hydroxypropylcellulose) (HPC) 101 % of control | dose: 200.0 mg/kg/injection, schedule: Q01DX005 (ip), vehicle: Klucel (hydroxypropylcellulose) (HPC) 95 % of control

CC(C)CNC1=CC(=O)c2ccccc2C1=O
inactive: dose: 50.0 mg/kg/injection, schedule: Q04DX003 (ip), vehicle: saline with Tween-80 106 % of control | dose: 100.0 mg/kg/injection, schedule: Q04DX003 (ip), vehicle: saline with Tween-80 108 % of control | dose: 200.0 mg/kg/injection, schedule: Q04DX003 (ip), vehicle: saline with Tween-80 92 % of control

— PubChem BioAssay AID330 (DTP/NCI, 2004)
